Assay results from patent US12129221B2, “Difluoro phenyl amide RIP1 inhibitor” (SIRONAX LTD, priority 2018, dated 2024).
“Also recorded” adds a separate entry of the source. Like-named read-outs stand apart in the source and are kept apart here.

What was measured:
PK in monkey = details: in vivo
[1] = Liver microsome stability, rat; format: in vitro ADME; details: liver microsomes
Source text: (§1) Representative Metabolic Stability Data I; +, Extrapolated.

[2] = tested on: mouse EAE model of multiple sclerosis; test: Mouse EAE model of multiple sclerosis; format: in vivo, C57/BL6 mice
Source text: A mouse EAE model of multiple sclerosis was established by immunizing C57/BL6 mice with MOG35-55 (amino acids 35-55 of myelin oligodendrocyte glycoprotein) to induce autoimmune reaction to the myelin of the CNS. Immune reaction causes damage to the myelin, and subsequently the neurons, resulting in animal paralysis.
SIR1-365 was delivered by food at 10 g/kg and FTY-720 was used as a positive control. Mice were feed with FTY-720 containing drinking water or with SIR1-365 containing chow 2 days before 1st immunization for 28 consecutive days. Scoring started at Day 8 post-1st immunization.
The results of pathological studies indicated myelin destruction of the spinal cord was protected by SIR1-365. Three different spinal cord regions were sectioned and stained with hematoxylin and eosin (H&E), spinal cord damages were scored and quantified. Feeding with SIR1-365 containing food protected spinal cord damage induced by auto-immune reaction in EAE model.

PK in mouse = details: in vivo
ferroptosis = test: Ferroptosis inhibitor activity; format: cell-based; details: 1 uM threshold activity extrapolated
Source text: Ferroptosis Inhibitor Activity 1 Um Threshold Activity Extrapolated

[3] = Liver microsome stability, mini-pig; format: in vitro ADME; set-up: key to mini-pig T1/2 (min): +, Extrapolated; details: extrapolated
Source text: as §1

necrosis = test: Necrosis inhibitory activity (cell necrosis / cell viability assay); format: cell-based
Source text: Necrosis Inhibitory Activity
(§2) Representative IC50 of hRIP1 Kinase Assay Correlated with Our IC50 of Cell Necrosis Assay: […]

[4] = Liver microsome stability, monkey; format: in vitro ADME; details: monkey, liver microsomes
Source text: as §1

[5] = Liver microsome stability, human; format: in vitro ADME; details: liver microsomes, liver microsome stability, read-out: Human T1/2
Source text: as §1

Human RIP1 kinase = Human RIP1 kinase (Homo sapiens (Human), UniProt Q13546); test: Human RIP1 kinase assay; format: biochemical; details: given as bound or range
Chain of Human RIP1 kinase (Q13546 whole entry): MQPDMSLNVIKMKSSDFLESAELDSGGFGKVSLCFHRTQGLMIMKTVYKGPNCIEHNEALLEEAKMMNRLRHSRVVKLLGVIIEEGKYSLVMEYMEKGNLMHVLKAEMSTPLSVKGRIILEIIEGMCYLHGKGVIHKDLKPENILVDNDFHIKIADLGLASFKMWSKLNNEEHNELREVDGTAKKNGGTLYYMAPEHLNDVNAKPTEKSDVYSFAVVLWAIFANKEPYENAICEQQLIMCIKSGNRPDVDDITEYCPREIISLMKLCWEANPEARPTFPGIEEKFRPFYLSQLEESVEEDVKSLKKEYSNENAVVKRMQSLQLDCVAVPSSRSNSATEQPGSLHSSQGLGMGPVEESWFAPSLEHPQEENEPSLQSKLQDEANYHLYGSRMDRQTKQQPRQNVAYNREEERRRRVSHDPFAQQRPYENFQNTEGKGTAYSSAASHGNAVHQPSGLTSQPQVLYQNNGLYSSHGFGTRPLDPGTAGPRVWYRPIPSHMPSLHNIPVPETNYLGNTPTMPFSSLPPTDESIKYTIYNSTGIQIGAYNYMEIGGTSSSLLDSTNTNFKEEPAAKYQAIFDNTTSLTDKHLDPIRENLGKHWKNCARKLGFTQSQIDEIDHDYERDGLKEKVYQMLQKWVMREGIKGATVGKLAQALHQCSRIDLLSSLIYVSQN
Source text: as §2

[6] = Hepatocyte stability, monkey; format: in vitro ADME; details: monkey, hepatocytes, read-out: Monkey T1/2
Source text: (§3) Representative Metabolic Stability Data II, +, Extrapolated.

[7] = Hepatocyte stability, mini-pig; format: in vitro ADME; details: minipig, hepatocytes, read-out: mini-pig T1/2
Source text: as §3

[8] = Liver microsome stability, mouse; format: in vitro ADME; details: liver microsomes
Source text: as §1

HT-29 = test: EC50 in HT-29; format: cell-based; details: Homo sapiens
[9] = tested on: TNF-α-induced SIRS in mice; test: Mouse SIRS model (TNF-α-induced mortality); format: in vivo, C57BI/6J mice; details: TNF-α intravenously 2 minutes after
Description: Effect on Mouse SIRS Model Sepsis preceded by systemic inflammatory response syndrome (SIRS), is a major cause of death in critically ill patients. TNF-α functions as a key mediator in SIRS pathogenesis by the induction of RIP1-RIP3 mediated necroptosis of the liver.
SIR1-365 was administrated as a single dose by oral gavage at 3 different doses: 1, 3, and 10 mg/kg to C57BI/6J mice. TNF-α was delivered intravenously 2 minutes after SIR1-365 administration. 87.5% (7 of 8) mice in the control group (given vehicle) died within 36 hours, whereas 50% (4 of 8) mice given SIR1-365 at 1 mg/kg and 25% (2 of 8) mice given SIR1-365 at 3 mg/kg died in the same period.

[10] = Liver microsome stability, dog; format: in vitro ADME; details: dog, liver microsomes
Source text: as §1

[11] = Hepatocyte stability, rat; format: in vitro ADME; details: rat, hepatocytes, read-out: Rat T1/2
Source text: as §3

[12] = Hepatocyte Stability, comparison table

## CCC(C)(C)C(=O)N(O)Cc1cc(F)cc(F)c1 [Compound 13, N-(3,5-difluorobenzyl)-N-hydroxy-2,2-dimethylbutanamide]
PK in monkey; IV 2 mg/kg
  AUC(0-inf): 1760 ng·h/mL
  clearance: 19.3 mL/min/kg
  half-life: 672 min
PK in monkey; IV 2 mg/kg, read-out: Vdss
  Vd: 0.93 L/kg
PK in monkey; PO 30 mg/kg
  AUC(0-inf): 6930 ng·h/mL
  Cmax: 3730 ng/mL
  bioavailability: 26.3%
  half-life: 90 min
PK in monkey; PO 100 mg/kg
  AUC(0-inf): 41600 ng·h/mL
  Cmax: 10700 ng/mL
  bioavailability: 47.5%
  half-life: 106 min
PK in monkey; PO 200 mg/kg
  AUC(0-inf): 87200 ng·h/mL
  Cmax: 20600 ng/mL
  bioavailability: 49.5%
  half-life: 130 min
[1]; comparison table with WO2016/101885 compounds, read-out: Rat Liver Microsome T1/2
  half-life: 20 min
[1]; liver microsome stability, read-out: Rat T1/2
  half-life: 19.9 min
[2]; 10 g of compound per kilogram food, H&E stained spinal cord sections, listed as SIR1-365
  EAE-induced myelin / spinal cord damage and animal paralysis: significantly reduced EAE-induced myelin damage and animal paralysis; also recorded: substantial reduction of myelin damage
[2]; delivered by food at 10 g/kg, 28 consecutive days
  disease score in EAE mice: significantly reduced the disease score
PK in mouse; IV 2 mg/kg
  AUC(0-inf): 489 ng·h/mL
  clearance: 68.2 mL/min/kg
  half-life: 17.4 min
PK in mouse; IV 2 mg/kg, read-out: Vdss
  Vd: 1.7 L/kg
PK in mouse; PO 10 mg/kg
  AUC(0-inf): 823 ng·h/mL
  Cmax: 1000 ng/mL
  bioavailability: 33.7%
  half-life: 28.8 min
PK in mouse; PO 40 mg/kg
  AUC(0-inf): 5410 ng·h/mL
  Cmax: 5420 ng/mL
  bioavailability: 55.4%
  half-life: 49.8 min
ferroptosis
  EC50: 1000 to 10000 nM
[3]
  mini-pig T1/2 (min): +
necrosis; Necrosis Inhibitory Activity, given as range, read-out: EC50
  EC50: 1 to 1000 nM
necrosis; cell necrosis assay, given as bound or range, read-out: Cell viability assay, EC50
  EC50: < 100 nM
[4]; comparison table with WO2016/101885 compounds, read-out: Monkey Liver Microsome T1/2
  half-life: 5 min
[4]; liver microsome stability, read-out: Monkey T1/2
  half-life: 4.72 min
[5]
  half-life: 228 min
Human RIP1 kinase
  IC50: < 100 nM
[6]; [12]
  half-life: 25 min
[6]; Hepatocyte stability
  half-life: 24.9 min
[7]
  half-life: 21.2 min
[8]; comparison table with WO2016/101885 compounds, read-out: Mouse Liver Microsome T1/2
  half-life: 17 min
[8]; liver microsome stability, read-out: Mouse T1/2
  half-life: 17.1 min
HT-29
  EC50: 28 nM
[9]; single oral gavage dose 1 mg/kg
  mice died within 36 hours: 50%
[9]; single oral gavage dose 3 mg/kg
  mice died within 36 hours: 25%
[9]; single oral gavage dose 10 mg/kg, listed as SIR1-365
  mortality caused by SIRS: completely prevented mortality; also recorded: complete prevention
[10]; comparison table with WO2016/101885 compounds, read-out: Dog Liver Microsome T1/2
  half-life: 2 min
[10]; liver microsome stability, read-out: Dog T1/2
  half-life: 2.34 min
[11]; [12]
  half-life: 28 min
[11]; Hepatocyte stability
  half-life: 28 min
